ChEMBL document CHEMBL1132849, “Amidinohydrazones as guanidine bioisosteres: application to a new class of potent, selective and orally bioavailable, non-amide-based small-molecule thrombin inhibitors” (Bioorg Med Chem Lett, 2000)
Where “and” joins values, the source holds several entries; their conditions need not be identical. Equal entries are not always repeated. Blank lines part the entries; values can stand above or below the compound they belong to.

Assays:
Prothrombin = Prothrombin (Homo sapiens, UniProt P00734); assay: Inhibitory constant against human alpha thrombin
[1] = Oral bioavailability in dog; assay type: ADME, organism-based, Canis lupus familiaris; settings: in vivo
[2] = pKa was evaluated; assay type: physicochemical
[3] = The compound was tested for time taken to decrease, half of its initial concentration in dog plasma.; assay type: ADME, organism-based, Canis lupus familiaris
[4] = The compound was tested for clearance in dog plasma.; assay type: ADME, organism-based, Canis lupus familiaris
[5] = The compound was tested for maximum concentration ( Cmax ) in dog plasma.; assay type: ADME, organism-based, Canis lupus familiaris
Canis familiaris [6] = species: Canis familiaris; assay: Vss in dog; assay type: ADME, organism-based, Canis lupus familiaris; settings: in vivo
[7] = Dose at which bioavailability of intravenously administered compound was tested in rabbit; assay type: ADME, organism-based, Oryctolagus cuniculus; settings: in vivo, iv
[8] = Dose at which bioavailability of perorally administered compound was tested in rabbit; assay type: ADME, organism-based, Oryctolagus cuniculus; settings: in vivo, po
[9] = The compound was tested for its bioavailability in rabbit (by oral dosage).; assay type: ADME, organism-based, Oryctolagus cuniculus; settings: in vivo
Canis familiaris [10] = species: Canis familiaris; assay: The compound was tested for clotting time thrombin(TCT); assay type: functional, Canis lupus familiaris
Canis familiaris [11] = assay: Time at which maximal (1.6 fold increase) prolong clotting time was observed after peroral administration of compound (30 mg/kg) in dog; assay type: functional, Canis lupus familiaris
Oryctolagus cuniculus [12] = assay: Prolongation of thrombin clotting time (to 1.9x over control), 60 min after peroral administration (30 mg/kg); assay type: functional
Oryctolagus cuniculus [13] = assay: Prolongation of thrombin clotting time (to 1.9x over control), after peroral administration (30 mg/kg); assay type: functional
[14] = Percent oral bioavailability of intravenously administered compound (6 mg/kg) was tested in dog; assay type: ADME, organism-based, Canis lupus familiaris; settings: in vivo, intravenous, read-out: Bioavailabiility
[15] = Partition coefficient ( LogP) of the compound; assay type: physicochemical; settings: octanol/water
Canis familiaris [16] = species: Canis familiaris; assay: Vss was determined; assay type: ADME, organism-based, Canis lupus familiaris; settings: dog, in vivo
Canis familiaris [17] = assay: Time at which maximal (4 fold increase) prolong clotting time was observed after peroral administration of compound (30 mg/kg); assay type: functional, Canis lupus familiaris
Canis familiaris [18] = assay: Anticoagulation (1.2 fold increase) after peroral administration of compound (30 mg/kg); assay type: functional, Canis lupus familiaris
Canis familiaris [19] = assay: Anticoagulation (1.6 fold increase) after peroral administration of compound (30 mg/kg); assay type: functional, Canis lupus familiaris
[20] = Percent oral bioavailability of perorally administered compound (30 mg/kg) was tested; assay type: ADME, organism-based; settings: in vivo, read-out: Bioavailabiility

Ki (Prothrombin): 44 nM
SMILES: Cc1cc(OCC/C=N/N=C(N)N)cc(OS(=O)(=O)c2cccc3ccccc23)c1

Ki (Prothrombin): 9.4 nM
SMILES: Cc1cc(OCC/C=N/N=C(N)N)cc(OS(=O)(=O)c2cccc(Cl)c2Cl)c1

Ki (Prothrombin): 20 nM
SMILES: Cc1cc(OCC/C=N/N=C(N)N)cc(OS(=O)(=O)c2ccccc2S(C)(=O)=O)c1

Ki (Prothrombin): 6 nM
SMILES: Cc1cc(OCC/C=N/N=C(N)N)cc(OS(=O)(=O)c2cccc(C)c2)c1

bioavailability [1]: 23%
pKa [2]: 8.71
half-life [3]: 21 h
clearance [4]: 39 mL/min/kg
Cmax [5]: 1800 nM
Vss (Canis familiaris [6]): 3.5 k
Dose [7]: 6 mg/kg
Dose [8]: 30 mg/kg
bioavailability [9]: 60%
bioavailability [14]: 23%
logP [15]: 2.34
SMILES: Cc1cc(OCC/C=N/N=C(N)N)cc(OS(=O)(=O)c2ccccc2Cl)c1
TCT (Canis familiaris [10]): 34 s and 21 s
Time (Canis familiaris [11]): 2 h
TCT (Oryctolagus cuniculus [12]): 50 s
TCT (Oryctolagus cuniculus [13]): 26 s

bioavailability [1]: 21%
pKa [2]: 8.84
half-life [3]: 19 h
clearance [4]: 79 mL/min/kg
Cmax [5]: 900 nM
Vss (Canis familiaris [16]): 23 k
bioavailability [20]: 21%
logP [15]: 2.11
SMILES: Cc1cc(OCC/C=N/N=C(N)N)cc(OS(=O)(=O)c2ccccc2C#N)c1
Time (Canis familiaris [17]): 1 h
Time (Canis familiaris [18]): 24 h
Time (Canis familiaris [19]): 8 h

Ki (Prothrombin): 11 nM
SMILES: COc1ccccc1S(=O)(=O)Oc1cc(C)cc(OCC/C=N/N=C(N)N)c1

Further lines, the compound ahead of its results:

SMILES: Cc1cc(OCC2(/C=N/N=C(N)N)CC2)cc(OS(=O)(=O)c2ccccc2C#N)c1
Ki (Prothrombin): 40 nM

SMILES: Cc1cc(OCC/C=N/N=C(N)N)cc(OCc2ccccc2C(F)(F)F)c1
Ki (Prothrombin): 420 nM

SMILES: Cc1cc(OCC/C=N/N=C(N)N)cc(OS(=O)(=O)c2ccccc2OC(F)(F)F)c1
Ki (Prothrombin): 11 nM

SMILES: COc1ccccc1S(=O)(=O)Oc1cc(C)cc(OC/C=N/N=C(N)N)c1
Ki (Prothrombin): > 1000 nM

SMILES: COc1cc(CCC/C=N/N=C(N)N)cc(OS(=O)(=O)c2ccccc2Cl)c1
Ki (Prothrombin): 990 nM

SMILES: Cc1cc(OCC/C=N/N=C(N)N)cc(OS(=O)(=O)c2cccnc2)c1
Ki (Prothrombin): 36 nM
